Test results published in patent publication US6479435B1, “Diaryl ethers and processes for their preparation and herbicidal and desiccant compositions containing them” (ISK Americas Incorporated, priority 1997, dated 2002).

Experiments:
Assay in all cases: Pre-emerge greenhouse herbicide test, phytotoxicity rating
Type in all cases: in vivo
[1] = test system: sicklepod (Cassia obtusifolia, CASOB); conditions: Senna obtusifolia, pre-emergence, 336 h, 14 days after application, rating scale 0-100; for pest or weed control at 125 g/ha: Rate 125 g al/ha; for pest or weed control at 500 g/ha: Rate 500 g al/ha
How it was run: (§1)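 Seeds sown in sandy loam mix one day before track-sprayer application of compounds in acetone at 125–1000 g ai/ha (187 l/ha), then surface-watered to incorporate and bottom-watered. Visual rating 14 days after application on a 0–100 scale (0 = no damage, 100 = all plants dead).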

[2] = test system: redroot pigweed (Amaranthus retroflexus, AMARE); conditions: Amaranthus retroflexus, pre-emergence, 336 h, 14 days after application, rating scale 0-100; for pest or weed control at 125 g/ha: Rate 125 g al/ha; for pest or weed control at 500 g/ha: Rate 500 g al/ha
How it was run: as §1

[3] = test system: large crabgrass (Digitaria sanguinalis, DIGSA); conditions: Digitaria sanguinalis, pre-emergence, 336 h, 14 days after application, rating scale 0-100; for pest or weed control at 125 g/ha: Rate 125 g al/ha; for pest or weed control at 500 g/ha: Rate 500 g al/ha
How it was run: as §1

Compound | pest or weed control at 125 g/ha [1] [%] | pest or weed control at 500 g/ha [1] [%] | pest or weed control at 125 g/ha [2] [%] | pest or weed control at 500 g/ha [2] [%] | pest or weed control at 125 g/ha [3] [%] | pest or weed control at 500 g/ha [3] [%]
Nn1c(C(F)(F)F)cc(=O)n(-c2cc(Oc3ccc(Br)cn3)c(Cl)cc2F)c1=O [Compound 9-2, 1-Amino-3-[4-chloro-2-fluoro-5-(5-bromo-2-pyridyloxy)phenyl]-6-trifluoromethyl-1,2,3,4-tetrahydropyrimidine-2,4-dione] | 0 | 50 | 80 | 100 | 95 | 100
Nn1c(C(F)(F)F)cc(=O)n(-c2cc(Oc3ccc(Cl)cn3)c(Cl)cc2F)c1=O [Compound 9-3, 1-Amino-3-[4-chloro-2-fluoro-5-(5-chloro-2-pyridyloxy)phenyl]-6-trifluoromethyl-1,2,3,4-tetrahydropyrimidine-2,4-dione] | 0 | 70 | 100 | 100 | 95 | 100
Nn1c(C(F)(F)F)cc(=O)n(-c2cc(Oc3cccc(Cl)n3)c(Cl)cc2F)c1=O [Compound 9-5, 1-Amino-3-[4-chloro-2-fluoro-5-(6-chloro-2-pyridyloxy)phenyl]-6-trifluoromethyl-1,2,3,4-tetrahydropyrimidine-2,4-dione] | 10 | 50 | 100 | 100 | 95 | 100
Nn1c(C(F)(F)F)cc(=O)n(-c2cc(Oc3nc(F)c(F)cc3F)c(Cl)cc2F)c1=O [Compound 9-6, 1-Amino-3-[4-chloro-2-fluoro-5-(3,5,6-trifluoro-2-pyridyloxy)phenyl]-6-trifluoromethyl-1,2,3,4-tetrahydropyrimidine-2,4-dione] | 90 | 100 | 100 | 100 | 100 | 100
Nn1c(C(F)(F)F)cc(=O)n(-c2cc(Oc3ncccc3C(F)(F)F)c(Cl)cc2F)c1=O [Compound 9-7, 1-Amino-3-[4-chloro-2-fluoro-5-(3-trifluoromethyl-2-pyridyloxy)phenyl]-6-trifluoromethyl-1,2,3,4-tetrahydropyrimidine-2,4-dione] | 40 | 100 | 100 | 100 | 100 | 100
Nn1c(C(F)(F)F)cc(=O)n(-c2cc(Oc3cc(C(F)(F)F)ccn3)c(Cl)cc2F)c1=O [Compound 9-8, 1-Amino-3-[4-chloro-2-fluoro-5-(4-trifluoromethyl-2-pyridyloxy)phenyl]-6-trifluoromethyl-1,2,3,4-tetrahydropyrimidine-2,4-dione] | 80 | 90 | 100 | 100 | 20 | 100
N#Cc1cccnc1Oc1cc(-n2c(=O)cc(C(F)(F)F)n(N)c2=O)c(F)cc1Cl [Compound 9-9, 1-Amino-3-[4-chloro-2-fluoro-5-(3-cyano-2-pyridyloxy)phenyl]-6-trifluoromethyl-1,2,3,4-tetrahydropyrimidine-2,4-dione] | 100 | 100 | 100 | 100 | 100 | 100
N#Cc1ccc(Oc2cc(-n3c(=O)cc(C(F)(F)F)n(N)c3=O)c(F)cc2Cl)nc1 [Compound 9-10, 1-Amino-3-[4-chloro-2-fluoro-5-(5-cyano-2-pyridyloxy)phenyl]-6-trifluoromethyl-1,2,3,4-tetrahydropyrimidine-2,4-dione] | 100 | 100 | 100 | 100 | 90 | 100
Nn1c(C(F)(F)F)cc(=O)n(-c2cc(Oc3ccc([N+](=O)[O-])cn3)c(Cl)cc2F)c1=O [Compound 9-11, 1-Amino-3-[4-chloro-2-fluoro-5-(5-nitro-2-pyridyloxy)phenyl]-6-trifluoromethyl-1,2,3,4-tetrahydropyrimidine-2,4-dione] | 10 | 20 | 100 | 100 | 30 | 95
Cc1nsc(Oc2cc(-n3c(=O)cc(C(F)(F)F)n(N)c3=O)c(F)cc2Cl)c1[N+](=O)[O-] [Compound 9-14, 1-Amino-3-[4-Chloro-2-fluoro-5-(3-methyl-4-nitroisothiazol-5-yloxy)phenyl]-6-trifluoromethyl-1,2,3,4-tetrahydropyrimidine-2,4-dione] | 100 | 90 | 100 | 100 | 100 | 100
Nn1c(C(F)(F)F)cc(=O)n(-c2cc(Oc3ccccn3)c(Cl)cc2F)c1=O [Compound 9-15, 1-amino-3-[4-chloro-2-fluoro-5-(2pyridyloxy)phenyl]-6-trifluoromethyl-1,2,3,4-tetrahydropyrimidine-2,4-dione] | 95 | 100 | 100 | 100 | 100 | 10
Nn1c(C(F)(F)F)cc(=O)n(-c2cc(Oc3ncccn3)c(Cl)cc2F)c1=O [Compound 9-16, 1-Amino-3-[4-chloro-2-fluoro-5-(2-pyrimidyloxy)phenyl]-6-trifluoromethyl-1,2,3,4-tetrahydropyrimidine-2,4-dione] | 100 | 100 | 100 | 100 | 100 | 100
Nn1c(C(F)(F)F)cc(=O)n(-c2cc(Oc3nccc(Cl)n3)c(Cl)cc2F)c1=O [Compound 9-17, 1-Amino-3-[4-chloro-2-fluoro-5-(4-chloro-2-pyrimidyloxy)phenyl]-6-trifluoromethyl-1,2,3,4-tetrahydropyrimidine-2,4-dione] | 20 | 70 | 100 | 100 | 30 | 100
Nn1c(C(F)(F)F)cc(=O)n(-c2cc(Oc3ccccc3[N+](=O)[O-])c(Cl)cc2F)c1=O [Compound 9-21, 1-amino-3-[4-chloro-2-fluoro-5-(2-nitrophenoxy)phenyl]-6-trifluoromethyl-1,2,3,4-tetrahydropyrimidine-2,4-dione] | 30 | 90 | 100 | 100 | 100 | 100
Nn1c(C(F)(F)F)cc(=O)n(-c2cc(Oc3ccc([N+](=O)[O-])cc3C(F)(F)F)c(Cl)cc2F)c1=O [Compound 9-22, 1-Amino-3-[4-chloro-2-fluoro-5-(4-nitro-2-trifluoromethylphenoxy)phenyl]-6-trifluoromethyl-1,2,3,4-tetrahydropyrimidine-2,4-dione] | 30 | 80 | 100 | 100 | 80 | 100
Nn1c(C(F)(F)F)cc(=O)n(-c2cc(Oc3cc([N+](=O)[O-])cc(C(F)(F)F)c3)c(Cl)cc2F)c1=O [Compound 9-23, 1-Amino-3-[4-chloro-2-fluoro-5-(3-nitro-5-trifluoromethylphenoxy)phenyl]-6-trifluoromethyl-1,2,3,4-tetrahydropyrimidine-2,4-dione] | 0 | 10 | 100 | 100 | 10 | 95
Nn1c(C(F)(F)F)cc(=O)n(-c2cc(Oc3ccccc3C(F)(F)F)c(Cl)cc2F)c1=O [Compound 9-24, 1-amino-3-[4-chloro-2-fluoro-5-(2-trifluoromethylphenoxy)phenyl]-6-trifluoromethyl-1,2,3,4-tetrahydropyrimidine-2,4-dione] | 30 | 0 | 95 | 100 | 90 | 100
Nn1c(C(F)(F)F)cc(=O)n(-c2cc(Oc3ccccc3)c(Cl)cc2F)c1=O [Compound 9-26, 1-Amino-3-[4-chloro-2-fluoro-5-phenoxyphenyl]-6-trifluoromethyl-1,2,3,4-tetrahydropyrimidine-2,4-dione] | 95 | 100 | 100 | 100 | 100 | 100
